Read-outs that look alike come from different tables or passages of the source.
Tests used:
Assay type in all cases: cell-based
[1] = test system: recombinant NL4-3 virus (Renilla luciferase) in MT-2 cells; experiment: HIV cell culture assay (antiviral activity, luciferase readout)
Procedure, shortened: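 Nef-deleted NL4-3 carrying Renilla luciferase, made by transfecting 293T cells, infects MT-2 cells for 4-5 days with serial compound dilutions present. Luciferase is read with a live-cell substrate. EC50 comes from the exponential median-effect equation Fa=1/[1+(ED50/drug conc.)m].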

[2] = Compound cytotoxicity, XTT-based colorimetric assay; details: human; uninfected MT2 cells, day 4, XTT assay
Procedure, shortened: (§1)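 Run under the antiviral-assay protocol but without virus. Viability was read on day 4 and CC50 values were derived from the readout.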

[3] = test system: uninfected MT2 cells; experiment: as above; details: day 4, XTT assay
Procedure, shortened: as §1

| Structure (SMILES) | EC50 ([1]; Renilla, NL43) [nM] | CC50 at 4 day [2] [nM] | EC50 ([1]; MT-2 cells infected for 4-5 days with recombinant NL4-3 virus, luciferase activity, read-out: EC50) [nM] | CC50 [3] [nM] |
| --- | --- | --- | --- | --- |
| CS(=O)(=O)Nc1nn(CC(F)F)c2c(-n3c([C@H](Cc4cc(F)cc(F)c4)NC(=O)Cn4ccc(C5CC5)n4)nc4nc(-c5ccccc5F)ccc4c3=O)ccc(Cl)c12 (atropisomer, axis not shown; (P)) [Example 33, (S)—N-(1-((3P)-3-(4-chloro-1-(2,2-difluoroethyl)-3-(methylsulfonamido)-1H-indazol-7-yl)-7-(2-fluorophenyl)-4-oxo-3,4-dihydropyrido[2,3-d]pyrimidin-2-yl)-2-(3,5-difluorophenyl)ethyl)-2-(3-cyclopropyl-1H-pyrazol-1-yl)acetamide] | 0.15 | > 500 | – | – |
| Cn1nc(NS(C)(=O)=O)c2c(Cl)ccc(-n3c([C@H](Cc4cc(F)cc(F)c4)NC(=O)Cn4ccc(C5CC5)n4)nc4nc(-c5ccccc5F)ccc4c3=O)c21 (atropisomer, axis not shown; (P)) [Example 34, (S)—N-(1-((3P)-3-(4-chloro-1-methyl-3-(methylsulfonamido)-1H-indazol-7-yl)-7-(2-fluorophenyl)-4-oxo-3,4-dihydropyrido[2,3-d]pyrimidin-2-yl)-2-(3,5-difluorophenyl)ethyl)-2-(3-cyclopropyl-1H-pyrazol-1-yl)acetamide] | 0.089 | > 500 | – | – |
| O=C(Cn1ccc(C2CC2)n1)N[C@@H](Cc1cc(F)cc(F)c1)c1nc2nc(-c3ccccc3F)ccc2c(=O)n1-c1ccc(Cl)c2c(NS(=O)(=O)C3CC3)nn(CC(F)F)c12 (atropisomer, axis not shown; (P)) [Example 35, (S)—N-(1-((3P)-3-(4-chloro-3-(cyclopropanesulfonamido)-1-(2,2-difluoroethyl)-1H-indazol-7-yl)-7-(2-fluorophenyl)-4-oxo-3,4-dihydropyrido[2,3-d]pyrimidin-2-yl)-2-(3,5-difluorophenyl)ethyl)-2-(3-cyclopropyl-1H-pyrazol-1-yl)acetamide] | 0.2 | > 500 | – | – |
| CS(=O)(=O)Nc1nn(CC(F)(F)F)c2c(-n3c([C@H](Cc4cc(F)cc(F)c4)NC(=O)Cn4ccc(C5CC5)n4)nc4nc(-c5ccccc5F)ccc4c3=O)ccc(Cl)c12 (atropisomer, axis not shown; (P)) [Example 36, (S)—N-(1-((3P)-3-(4-chloro-3-(methylsulfonamido)-1-(2,2,2-trifluoroethyl)-1H-indazol-7-yl)-7-(2-fluorophenyl)-4-oxo-3,4-dihydropyrido[2,3-d]pyrimidin-2-yl)-2-(3,5-difluorophenyl)ethyl)-2-(3-cyclopropyl-1H-pyrazol-1-yl)acetamide] | 0.16 | > 500 | – | – |
| Cn1nc(NS(C)(=O)=O)c2c(Cl)ccc(-n3c([C@H](Cc4cc(F)cc(F)c4)NC(=O)Cn4nc(C(F)F)c5c4C(F)(F)[C@@H]4C[C@H]54)nc4cc(-c5ccc(F)cc5F)cnc4c3=O)c21 (atropisomer, axis not shown; (P)) [Example 37, N—((S)-1-((3P)-3-(4-chloro-1-methyl-3-(methylsulfonamido)-1H-indazol-7-yl)-7-(2,4-difluorophenyl)-4-oxo-3,4-dihydropyrido[3,2-d]pyrimidin-2-yl)-2-(3,5-difluorophenyl)ethyl)-2-((3bS,4aR)-3-(difluoromethyl)-5,5-difluoro-3b,4,4a,5-tetrahydro-1H-cyclopropa[3,4]cyclopenta[1,2-c]pyrazol-1-yl)acetamide] | 2 | > 500 | – | – |
| Cn1nc(NS(C)(=O)=O)c2c(Cl)ccc(-n3c([C@H](Cc4cc(F)cc(F)c4)NC(=O)Cn4nc(C(F)F)c5c4C(F)(F)[C@@H]4C[C@H]54)nc4cc(-c5ccccc5F)cnc4c3=O)c21 (atropisomer, axis not shown; (P)) [Example 38, N—((S)-1-((3P)-3-(4-chloro-1-methyl-3-(methylsulfonamido)-1H-indazol-7-yl)-7-(2-fluorophenyl)-4-oxo-3,4-dihydropyrido[3,2-d]pyrimidin-2-yl)-2-(3,5-difluorophenyl)ethyl)-2-((3bS,4aR)-3-(difluoromethyl)-5,5-difluoro-3b,4,4a,5-tetrahydro-1H-cyclopropa[3,4]cyclopenta[1,2-c]pyrazol-1-yl)acetamide] | 1.9 | > 500 | – | – |
| Cn1nc(NS(C)(=O)=O)c2c(Cl)ccc(-n3c([C@H](Cc4cc(F)cc(F)c4)NC(=O)Cn4nc(C(F)F)c5c4C(F)(F)[C@@H]4C[C@H]54)nc4nc(-c5ccc(F)cc5F)ccc4c3=O)c21 (atropisomer, axis not shown; (P)) [Example 39, N—((S)-1-((3P)-3-(4-chloro-1-methyl-3-(methylsulfonamido)-1H-indazol-7-yl)-7-(2,4-difluorophenyl)-4-oxo-3,4-dihydropyrido[2,3-d]pyrimidin-2-yl)-2-(3,5-difluorophenyl)ethyl)-2-((3bS,4aR)-3-(difluoromethyl)-5,5-difluoro-3b,4,4a,5-tetrahydro-1H-cyclopropa[3,4]cyclopenta[1,2-c]pyrazol-1-yl)acetamide] | 0.047 | > 500 | – | – |
| CS(=O)(=O)Nc1nn(CC(F)F)c2c(-n3c(C(Cc4cc(F)cc(F)c4)NC(=O)Cn4nc(C(F)(F)F)c5c4C(F)(F)C4CC54)nc4nc(-c5ccccc5F)ccc4c3=O)ccc(Cl)c12 [Example 32, N—((S)-1-((3P)-3-(4-chloro-1-(2,2-difluoroethyl)-3-(methylsulfonamido)-1H-indazol-7-yl)-7-(2-fluorophenyl)-4-oxo-3,4-dihydropyrido[2,3-d]pyrimidin-2-yl)-2-(3,5-difluorophenyl)ethyl)-2-((3bS,4aR)-5,5-difluoro-3-(trifluoromethyl)-3b,4,4a,5-tetrahydro-1H-cyclopropa[3,4]cyclopenta[1,2-c]pyrazol-1-yl)acetamide] | – | – | 0.077 | > 500 |

From patent publication US20220089598A1, “INHIBITORS OF HUMAN IMMUNODEFICIENCY VIRUS REPLICATION” (VIIV HEALTHCARE UK (No. 5) LIMITED, priority 2018, published 2022)
